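Each compound was tested at five concentrations against cells in 96-well plates for 48 hours. Here, GI50 denotes the concentration required for 50% inhibition of growth. Definition used: TGI = concentration required for complete inhibition of growth.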
Legend:
Assay in all cases: inhibition of tumour cell growth, NCI panel, 48 h
MDA-MB-231 breast = tested on: MDA-MB-231 breast
K-562 leukemia = tested on: K-562 leukemia
SNB-19 CNS = tested on: SNB-19 CNS
LOX IMVI melanoma = tested on: LOX IMVI melanoma
SR leukemia = tested on: SR leukemia
SW-620 colon = tested on: SW-620 colon
SK-MEL-2 melanoma = tested on: SK-MEL-2 melanoma
BT-549 breast = tested on: BT-549 breast
SK-MEL-28 melanoma = tested on: SK-MEL-28 melanoma
HOP-92 NSCLC = tested on: HOP-92 NSCLC
M14 melanoma = tested on: M14 melanoma
UACC-257 melanoma = tested on: UACC-257 melanoma
MDA-N = tested on: MDA-N
OVCAR-5 ovarian = tested on: OVCAR-5 ovarian
A549 NSCLC = tested on: A549 NSCLC
NCI/ADR-RES ovarian = tested on: NCI/ADR-RES ovarian
SF-539 CNS = tested on: SF-539 CNS
HT29 colon = tested on: HT29 colon
ACHN renal = tested on: ACHN renal
OVCAR-3 ovarian = tested on: OVCAR-3 ovarian
EKVX NSCLC = tested on: EKVX NSCLC
NCI-H522 lung = tested on: NCI-H522 lung
NCI-H23 lung = tested on: NCI-H23 lung
DU-145 prostate = tested on: DU-145 prostate
CCRF-CEM leukemia = tested on: CCRF-CEM leukemia
HCC-2998 colon = tested on: HCC-2998 colon
KM12 colon = tested on: KM12 colon
TK-10 renal = tested on: TK-10 renal
786-0 renal = tested on: 786-0 renal
MALME-3M melanoma = tested on: MALME-3M melanoma
U251 CNS = tested on: U251 CNS
NCI-H226 lung = tested on: NCI-H226 lung
RXF 393 renal = tested on: RXF 393 renal
HCT-116 colon = tested on: HCT-116 colon
UACC-62 melanoma = tested on: UACC-62 melanoma
RPMI-8226 leukemia = tested on: RPMI-8226 leukemia
HCT-15 colon = tested on: HCT-15 colon
SF-268 CNS = tested on: SF-268 CNS
OVCAR-4 ovarian = tested on: OVCAR-4 ovarian
NCI-H460 lung = tested on: NCI-H460 lung
SK-OV-3 ovarian = tested on: SK-OV-3 ovarian
UO-31 renal = tested on: UO-31 renal
MDA-MB-435 = tested on: MDA-MB-435
OVCAR-8 ovarian = tested on: OVCAR-8 ovarian
MOLT-4 leukemia = tested on: MOLT-4 leukemia
PC-3 prostate = tested on: PC-3 prostate
CAKI-1 renal = tested on: CAKI-1 renal
COLO 205 colon = tested on: COLO 205 colon
IGROV1 ovarian = tested on: IGROV1 ovarian
MCF7 breast = tested on: MCF7 breast
T-47D breast = tested on: T-47D breast
SF-295 CNS = tested on: SF-295 CNS
SK-MEL-5 melanoma = tested on: SK-MEL-5 melanoma
SN12C renal = tested on: SN12C renal
HS 578T breast = tested on: HS 578T breast
HL-60(TB) leukemia = tested on: HL-60(TB) leukemia
A498 renal = tested on: A498 renal
HOP-62 NSCLC = tested on: HOP-62 NSCLC
SNB-75 CNS = tested on: SNB-75 CNS
SNB-78 CNS = tested on: SNB-78 CNS
HOP-18 NSCLC = tested on: HOP-18 NSCLC
KM20L2 colon = tested on: KM20L2 colon
M19-MEL melanoma = tested on: M19-MEL melanoma
LXFL 529 NSCLC = tested on: LXFL 529 NSCLC
DMS 114 small cell lung = tested on: DMS 114 small cell lung
DMS 273 small cell lung = tested on: DMS 273 small cell lung
DLD-1 colon = tested on: DLD-1 colon

COC(=O)[C@H](Cc1ccccc1)NC(=O)CCCCCCC(=O)NO
TGI (MDA-MB-231 breast): 65.3 µM | TGI (K-562 leukemia): > 100 µM | TGI (SNB-19 CNS): > 100 µM | TGI (LOX IMVI melanoma): 32.4 µM | TGI (SR leukemia): > 100 µM | TGI (SW-620 colon): > 100 µM | TGI (SK-MEL-2 melanoma): 23.8 µM | TGI (BT-549 breast): > 100 µM | TGI (SK-MEL-28 melanoma): > 100 µM | TGI (HOP-92 NSCLC): 71.9 µM | TGI (M14 melanoma): > 100 µM | TGI (UACC-257 melanoma): 45.4 µM | TGI (MDA-N): 56.6 µM | TGI (OVCAR-5 ovarian): 43.9 µM | TGI (A549 NSCLC): > 100 µM | TGI (NCI/ADR-RES ovarian): > 100 µM | TGI (SF-539 CNS): > 100 µM | TGI (HT29 colon): > 100 µM | TGI (ACHN renal): > 100 µM | TGI (OVCAR-3 ovarian): 34.9 µM | TGI (EKVX NSCLC): > 100 µM | TGI (NCI-H522 lung): 30.6 µM | TGI (NCI-H23 lung): > 100 µM | TGI (DU-145 prostate): 38.5 µM | TGI (CCRF-CEM leukemia): > 100 µM | TGI (HCC-2998 colon): 42.5 µM | TGI (KM12 colon): > 100 µM | TGI (TK-10 renal): 72.5 µM | TGI (786-0 renal): > 100 µM | TGI (MALME-3M melanoma): 38.6 µM | TGI (U251 CNS): 87.5 µM | TGI (NCI-H226 lung): > 100 µM | TGI (RXF 393 renal): 32.3 µM | TGI (HCT-116 colon): 27 µM | TGI (UACC-62 melanoma): 46.8 µM | TGI (RPMI-8226 leukemia): > 100 µM | TGI (HCT-15 colon): > 100 µM | TGI (SF-268 CNS): 72.1 µM | TGI (OVCAR-4 ovarian): > 100 µM | TGI (NCI-H460 lung): 86 µM | TGI (SK-OV-3 ovarian): 52.3 µM | TGI (UO-31 renal): > 100 µM | TGI (MDA-MB-435): 63.8 µM | TGI (OVCAR-8 ovarian): > 100 µM | TGI (MOLT-4 leukemia): > 100 µM | TGI (PC-3 prostate): 38.2 µM | TGI (CAKI-1 renal): > 100 µM | TGI (COLO 205 colon): > 100 µM | TGI (IGROV1 ovarian): 57.5 µM | TGI (MCF7 breast): > 100 µM | TGI (T-47D breast): 8.88 µM | TGI (SF-295 CNS): 44.6 µM | TGI (SK-MEL-5 melanoma): 28.6 µM | TGI (SN12C renal): > 100 µM | TGI (HS 578T breast): > 100 µM | TGI (HL-60(TB) leukemia): > 100 µM

C[C@]12CC[C@@H]3c4cc(I)c(O)cc4CC[C@H]3[C@@H]1CC[C@@H]2O
TGI (MDA-MB-231 breast): 25.3 µM | TGI (K-562 leukemia): 24.2 µM | TGI (SNB-19 CNS): 34.9 µM | TGI (LOX IMVI melanoma): 25.8 µM | TGI (SR leukemia): 13.7 µM | TGI (SW-620 colon): 13.5 µM | TGI (SK-MEL-2 melanoma): 13.7 µM | TGI (BT-549 breast): 25.1 µM | TGI (SK-MEL-28 melanoma): 26.7 µM | TGI (HOP-92 NSCLC): 26.3 µM | TGI (M14 melanoma): 17.4 µM | TGI (UACC-257 melanoma): 23.5 µM | TGI (MDA-N): 5.77 µM | TGI (OVCAR-5 ovarian): 25.7 µM | TGI (A549 NSCLC): 25.1 µM | TGI (NCI/ADR-RES ovarian): > 78.2 µM | GI50 (SF-539 CNS): 3.02 µM | TGI (SF-539 CNS): 7.76 µM | TGI (HT29 colon): 34.3 µM | TGI (ACHN renal): 21 µM | TGI (OVCAR-3 ovarian): 11.9 µM | TGI (EKVX NSCLC): 15.6 µM | TGI (A498 renal): 24.3 µM | TGI (NCI-H522 lung): 17.8 µM | TGI (NCI-H23 lung): 25.1 µM | GI50 (DU-145 prostate): 6.9 µM | TGI (DU-145 prostate): 23.8 µM | GI50 (HOP-62 NSCLC): 4.22 µM | TGI (HOP-62 NSCLC): 17.3 µM | TGI (CCRF-CEM leukemia): 22.4 µM | TGI (HCC-2998 colon): 21 µM | TGI (KM12 colon): 13.2 µM | TGI (TK-10 renal): 27.6 µM | TGI (786-0 renal): 18.4 µM | TGI (MALME-3M melanoma): 28.3 µM | TGI (U251 CNS): 16.8 µM | TGI (NCI-H226 lung): 33.4 µM | TGI (RXF 393 renal): 20.1 µM | GI50 (HCT-116 colon): 5.01 µM | TGI (HCT-116 colon): 16.5 µM | GI50 (UACC-62 melanoma): 3.63 µM | TGI (UACC-62 melanoma): 14.5 µM | TGI (SNB-75 CNS): 12.4 µM | TGI (RPMI-8226 leukemia): 37.7 µM | TGI (HCT-15 colon): 8.78 µM | TGI (SF-268 CNS): 58.5 µM | TGI (OVCAR-4 ovarian): 39.3 µM | TGI (NCI-H460 lung): 16 µM | TGI (SK-OV-3 ovarian): 16.4 µM | TGI (UO-31 renal): 17.6 µM | GI50 (MDA-MB-435): 2.11 µM | TGI (MDA-MB-435): 8.02 µM | TGI (OVCAR-8 ovarian): 40.2 µM | TGI (MOLT-4 leukemia): > 54.8 µM | TGI (PC-3 prostate): > 56.4 µM | TGI (CAKI-1 renal): 27 µM | TGI (COLO 205 colon): 36.2 µM | TGI (IGROV1 ovarian): 20.5 µM | TGI (MCF7 breast): 21.1 µM | TGI (T-47D breast): 37.4 µM | TGI (SF-295 CNS): 16.4 µM | TGI (SK-MEL-5 melanoma): 12.2 µM | GI50 (SN12C renal): 6.66 µM | TGI (SN12C renal): 22.2 µM | TGI (HS 578T breast): 8.6 µM | TGI (HL-60(TB) leukemia): > 33.4 µM

O=C(O)c1ccc(C2C(=O)N[C@@H]3CCC[C@H]23)cc1 (stereo not given in full)
TGI (K-562 leukemia): > 100 µM | TGI (SNB-78 CNS): > 100 µM | TGI (HOP-18 NSCLC): > 100 µM | TGI (SNB-19 CNS): > 100 µM | TGI (LOX IMVI melanoma): > 100 µM | TGI (SW-620 colon): > 100 µM | TGI (SK-MEL-2 melanoma): > 100 µM | TGI (KM20L2 colon): > 100 µM | TGI (SK-MEL-28 melanoma): > 100 µM | TGI (M14 melanoma): > 100 µM | TGI (UACC-257 melanoma): > 100 µM | TGI (OVCAR-5 ovarian): > 100 µM | TGI (A549 NSCLC): > 100 µM | TGI (SF-539 CNS): > 100 µM | TGI (HT29 colon): > 100 µM | TGI (OVCAR-3 ovarian): > 100 µM | TGI (M19-MEL melanoma): > 100 µM | TGI (EKVX NSCLC): > 100 µM | TGI (A498 renal): > 100 µM | TGI (NCI-H522 lung): > 100 µM | TGI (NCI-H23 lung): > 100 µM | TGI (HOP-62 NSCLC): > 100 µM | TGI (CCRF-CEM leukemia): > 100 µM | TGI (HCC-2998 colon): > 100 µM | TGI (KM12 colon): > 100 µM | TGI (TK-10 renal): > 100 µM | TGI (786-0 renal): > 100 µM | TGI (MALME-3M melanoma): > 100 µM | TGI (U251 CNS): > 100 µM | TGI (NCI-H226 lung): > 100 µM | TGI (RXF 393 renal): > 100 µM | TGI (LXFL 529 NSCLC): > 100 µM | TGI (HCT-116 colon): > 100 µM | TGI (UACC-62 melanoma): > 100 µM | TGI (SNB-75 CNS): > 100 µM | TGI (RPMI-8226 leukemia): > 100 µM | TGI (HCT-15 colon): > 100 µM | TGI (SF-268 CNS): > 100 µM | TGI (OVCAR-4 ovarian): > 100 µM | TGI (DMS 114 small cell lung): > 100 µM | TGI (NCI-H460 lung): > 100 µM | TGI (SK-OV-3 ovarian): > 100 µM | TGI (UO-31 renal): > 100 µM | TGI (OVCAR-8 ovarian): > 100 µM | TGI (MOLT-4 leukemia): > 100 µM | TGI (DMS 273 small cell lung): > 100 µM | TGI (CAKI-1 renal): > 100 µM | TGI (COLO 205 colon): > 100 µM | TGI (IGROV1 ovarian): > 100 µM | TGI (DLD-1 colon): > 100 µM | TGI (SF-295 CNS): > 100 µM | TGI (SK-MEL-5 melanoma): > 100 µM | TGI (HL-60(TB) leukemia): > 100 µM

Source: PubChem BioAssay (NCI)
